Data as given in patent publication US20230183215A1, “Notch Inhibitors and Uses Thereof” (StemSynergy Therapeutics, Inc., priority 2020, published 2023).
Structures can show the parent of a compound that is named as a salt.

Experiments:
[1] = test system: OE33 Esophageal Adenocarcinoma cell line; test: OE33 Colony Formation Assay; assay type: cell-based; details: Homo sapiens, 200 cells/well, compound every 48 hours for 7 days, CellTiter-Glo
How it was run: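 Sparse OE33 esophageal adenocarcinoma cells (200 cells/well) received serially diluted compound (0.1% DMSO final), refreshed every 48 h over 7 days. Clonogenic growth was read by CellTiter-Glo luminescence normalized to 0.1% DMSO controls; EC50 from nonlinear regression.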

[2] = molecular target: T1, Notch1 (Homo sapiens, UniProt P46531); test: Notch1 Reporter Assay (CSL-responsive luciferase, doxycycline-induced Notch-ICD in 293A cells); assay type: cell-based; details: 25 ng/mL Dox, 24 h, luciferase normalized to cell viability
T1 construct: pLV[Tet]-Puro-TRE3G>Notch1-ICD; expressed in transfected cells; host or cells: 293A cells
How it was run: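 293A cells with Tet-On 3G, Dox-inducible Notch-ICD and CSL-responsive luciferase reporter were treated with compound plus 25 ng/mL Dox (final, 0.25% DMSO) for 24 h. Luciferase normalized to CellTiter-Glo viability, scaled to DMSO wells; IC50 by 4-parameter nonlinear regression.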

T1 sequence (P46531 1754-2555 limits assumed): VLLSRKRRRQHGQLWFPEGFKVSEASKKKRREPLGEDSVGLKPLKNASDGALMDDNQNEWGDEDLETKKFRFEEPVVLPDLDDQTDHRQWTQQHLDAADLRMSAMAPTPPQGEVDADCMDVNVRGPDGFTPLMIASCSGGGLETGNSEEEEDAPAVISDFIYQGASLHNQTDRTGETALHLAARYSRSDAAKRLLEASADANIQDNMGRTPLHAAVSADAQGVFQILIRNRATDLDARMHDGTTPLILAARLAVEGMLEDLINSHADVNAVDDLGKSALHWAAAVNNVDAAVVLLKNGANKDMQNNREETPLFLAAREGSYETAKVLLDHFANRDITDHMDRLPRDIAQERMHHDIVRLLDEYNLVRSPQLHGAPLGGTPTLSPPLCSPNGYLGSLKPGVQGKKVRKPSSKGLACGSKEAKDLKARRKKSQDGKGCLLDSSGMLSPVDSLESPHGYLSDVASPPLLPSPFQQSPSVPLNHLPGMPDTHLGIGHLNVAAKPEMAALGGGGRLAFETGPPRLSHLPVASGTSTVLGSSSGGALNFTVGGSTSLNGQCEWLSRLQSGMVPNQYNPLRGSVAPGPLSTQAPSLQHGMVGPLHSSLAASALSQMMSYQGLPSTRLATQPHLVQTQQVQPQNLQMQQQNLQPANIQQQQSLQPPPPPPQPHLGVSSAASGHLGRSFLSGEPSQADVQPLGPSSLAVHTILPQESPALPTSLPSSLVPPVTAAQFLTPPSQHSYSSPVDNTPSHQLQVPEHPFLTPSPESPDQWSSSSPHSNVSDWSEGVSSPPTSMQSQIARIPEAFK

Work on `COC(=O)c1cc(OCc2nnc[nH]2)c(OC)cc1-c1cc(C(F)(F)F)cc2c1n(C)c(=O)n2CC(=O)Nc1ccc(F)cc1` [SSTN-604, Methyl 5-((4H-1,2,4-triazol-3-yl)methoxy)-2-(1-(2-((4-fluorophenyl)amino)-2-oxoethyl)-3-methyl-2-oxo-6-(trifluoromethyl)-2,3-dihydro-1H-benzo[d]imidazol-4-yl)-4-methoxybenzoate hydrochloride salt] yielded an EC50 [1] of 18.9 µM and an IC50 [2] of 10.4 µM.
`COc1cc(-c2cc(C(F)(F)F)cc3c2n(C)c(=O)n3CC(=O)Nc2cccc(C(F)(F)F)c2)cc(F)c1OCc1nnc[nH]1` [SSTN-495, 2-(4-(4-((4H-1,2,4-triazol-3-yl)methoxy)-3-fluoro-5-methoxyphenyl)-3-methyl-2-oxo-6-(trifluoromethyl)-2,3-dihydro-1H-benzo[d]imidazol-1-yl)-N-(3-(trifluoromethyl)phenyl)acetamide hydrochloride] was tested, and the EC50 [1] was 1.5 µM and the IC50 [2] was 4.3 µM.
`COc1cc(-c2cc(C(F)(F)F)cc3c2n(C)c(=O)n3CC(=O)Nc2ccc(S(C)(=O)=O)cc2)cc(F)c1OCc1nnc[nH]1` [SSTN-503, 2-(4-(4-((4H-1,2,4-triazol-3-yl)methoxy)-3-fluoro-5-methoxyphenyl)-3-methyl-2-oxo-6-(trifluoromethyl)-2,3-dihydro-1H-benzo[d]imidazol-1-yl)-N-(4-(methylsulfonyl)phenyl)acetamide hydrochloride] gave an EC50 [1] of 8.4 µM and an IC50 [2] of 12.5 µM.
